From the NIST ThermoML archive (doi:10.1016/j.jct.2006.10.008)

Columns and labels:
[1] = xn = mol fraction of the nth substance listed; conditions: 298.15 K, 101 kPa, Liquid
[2] = excess molar enthalpy (molar enthalpy of mixing); xn = mol fraction of the nth substance listed; conditions: 298.15 K, 101 kPa, Liquid, Calvet calorimetry

ClCCCCl [1,3-dichloropropane] + CCOC=O
Conditions	excess molar enthalpy [kcal/mol]	mass density [kg/m3]
[1], x2 = 0.0758	–	1161.82
[1], x2 = 0.1392	–	1147.48
[1], x2 = 0.2059	–	1132.04
[1], x2 = 0.2686	–	1117.5
[1], x2 = 0.336	–	1101.45
[1], x2 = 0.3983	–	1086.31
[1], x2 = 0.4584	–	1071.44
[1], x2 = 0.5183	–	1056.42
[1], x2 = 0.5752	–	1041.98
[1], x2 = 0.6319	–	1027.35
[1], x2 = 0.6884	–	1012.54
[1], x2 = 0.7433	–	997.87
[1], x2 = 0.7967	–	983.56
[1], x2 = 0.849	–	969.23
[1], x2 = 0.9005	–	954.87
[1], x2 = 0.949	–	941.1
[2], x2 = 0.1171	0.00817	–
[2], x2 = 0.2311	0.0165	–
[2], x2 = 0.3403	0.0202	–
[2], x2 = 0.435	0.0196	–
[2], x2 = 0.5147	0.0165	–
[2], x2 = 0.5813	0.0124	–
[2], x2 = 0.6354	0.00894	–
[2], x2 = 0.682	0.00588	–
[2], x2 = 0.7186	0.00296	–
[2], x2 = 0.7381	-0.0037	–
[2], x2 = 0.7773	-0.00679	–
[2], x2 = 0.8208	-0.0092	–
[2], x2 = 0.8622	-0.0105	–
[2], x2 = 0.9018	-0.00858	–
[2], x2 = 0.9383	-0.00452	–
[2], x2 = 0.9723	-0.000287	–

ClCCCCCCl [1,5-dichloropentane] + COC=O
Conditions	excess molar enthalpy [kcal/mol]	mass density [kg/m3]
[1], x2 = 0.1169	–	1086.48
[1], x2 = 0.2211	–	1077.88
[1], x2 = 0.3054	–	1070.16
[1], x2 = 0.3849	–	1062.32
[1], x2 = 0.4622	–	1054
[1], x2 = 0.5291	–	1046.2
[1], x2 = 0.5925	–	1038.15
[1], x2 = 0.6496	–	1030.38
[1], x2 = 0.7004	–	1022.87
[1], x2 = 0.7481	–	1015.48
[1], x2 = 0.792	–	1008.18
[1], x2 = 0.8333	–	1001
[1], x2 = 0.8711	–	993.92
[1], x2 = 0.9066	–	986.88
[1], x2 = 0.94	–	980.05
[1], x2 = 0.9705	–	973.45
[2], x2 = 0.1095	0.0523	–
[2], x2 = 0.2232	0.0884	–
[2], x2 = 0.3299	0.1192	–
[2], x2 = 0.4118	0.1356	–
[2], x2 = 0.4763	0.1457	–
[2], x2 = 0.5269	0.1465	–
[2], x2 = 0.5661	0.1483	–
[2], x2 = 0.613	0.1504	–
[2], x2 = 0.6627	0.1476	–
[2], x2 = 0.7114	0.1441	–
[2], x2 = 0.7734	0.1339	–
[2], x2 = 0.8369	0.1151	–
[2], x2 = 0.88	0.09362	–
[2], x2 = 0.9328	0.0669	–
[2], x2 = 0.9693	0.0361	–

CCCCCOC=O [pentyl methanoate] + ClCCCCCl
Conditions	excess molar enthalpy [kcal/mol]	mass density [kg/m3]
[1], x1 = 0.0535	–	1118.26
[1], x1 = 0.1055	–	1103.42
[1], x1 = 0.1566	–	1089.12
[1], x1 = 0.2106	–	1074.27
[1], x1 = 0.2635	–	1060
[1], x1 = 0.3199	–	1045.06
[1], x1 = 0.3768	–	1030.28
[1], x1 = 0.4344	–	1015.59
[1], x1 = 0.4908	–	1001.46
[1], x1 = 0.5505	–	986.81
[1], x1 = 0.6109	–	972.26
[1], x1 = 0.6726	–	957.67
[1], x1 = 0.7351	–	943.19
[1], x1 = 0.7986	–	928.74
[1], x1 = 0.8646	–	914.02
[1], x1 = 0.9292	–	899.89
[2], x1 = 0.0558	-0.00368	–
[2], x1 = 0.1297	-0.0102	–
[2], x1 = 0.2099	-0.0181	–
[2], x1 = 0.2822	-0.0275	–
[2], x1 = 0.3497	-0.0373	–
[2], x1 = 0.4176	-0.0442	–
[2], x1 = 0.4615	-0.0492	–
[2], x1 = 0.4847	-0.0503	–
[2], x1 = 0.5352	-0.0522	–
[2], x1 = 0.5989	-0.0512	–
[2], x1 = 0.6703	-0.0498	–
[2], x1 = 0.7496	-0.0436	–
[2], x1 = 0.8354	-0.0321	–
[2], x1 = 0.9293	-0.0167	–

ClCCCCCCl [1,5-dichloropentane] + CCCOC=O
Conditions	excess molar enthalpy [kcal/mol]	mass density [kg/m3]
[1], x2 = 0.0753	–	1084.21
[1], x2 = 0.1495	–	1073.17
[1], x2 = 0.2212	–	1062.01
[1], x2 = 0.2884	–	1051.29
[1], x2 = 0.3607	–	1039.4
[1], x2 = 0.4174	–	1029.7
[1], x2 = 0.4802	–	1018.63
[1], x2 = 0.5386	–	1008.06
[1], x2 = 0.6024	–	996.11
[1], x2 = 0.6568	–	985.57
[1], x2 = 0.7118	–	974.66
[1], x2 = 0.8133	–	953.48
[1], x2 = 0.8586	–	943.64
[1], x2 = 0.9056	–	933.22
[1], x2 = 0.9555	–	921.68
[2], x2 = 0.0792	0.0136	–
[2], x2 = 0.1664	0.0219	–
[2], x2 = 0.2538	0.0276	–
[2], x2 = 0.3307	0.0289	–
[2], x2 = 0.4063	0.0282	–
[2], x2 = 0.4789	0.0251	–
[2], x2 = 0.5175	0.022	–
[2], x2 = 0.5645	0.0176	–
[2], x2 = 0.6145	0.0142	–
[2], x2 = 0.6665	0.00935	–
[2], x2 = 0.7229	0.00478	–
[2], x2 = 0.7817	0.0016	–
[2], x2 = 0.8389	-0.00249	–
[2], x2 = 0.8948	-0.00507	–
[2], x2 = 0.9503	-0.00287	–
